Where a name gives a salt, the structure may show the parent alone.
Biological target: T1, mGluR5 (Homo sapiens, UniProt P41594)
T1 construct: expressed in transfected cells
Assay: inhibition of the glutamate induced elevation of intracellular Ca2+-concentration
Assay type: cell-based
Details: for mGluR5 Activity inh. at 10 μM [%]: inhibition of glutamate induced elevation of intracellular Ca2+-concentration at a concentration of 10 μM; for inhibition at 10 µM: read-out: mGluR5 Activity inh. at 10 μM [%]
Source text: This can be determined in vitro for example at recombinant human metabotropic glutamate receptors, especially PLC-coupled subtypes thereof such as mGluR5, using different procedures like, for example, measurement of the inhibition of the agonist induced elevation of intracellular Ca^2+ concentration in accordance with L. P. Daggett et al., Neuropharm.

T1 sequence (P41594 21-1180 isoform P41594-2 limits assumed): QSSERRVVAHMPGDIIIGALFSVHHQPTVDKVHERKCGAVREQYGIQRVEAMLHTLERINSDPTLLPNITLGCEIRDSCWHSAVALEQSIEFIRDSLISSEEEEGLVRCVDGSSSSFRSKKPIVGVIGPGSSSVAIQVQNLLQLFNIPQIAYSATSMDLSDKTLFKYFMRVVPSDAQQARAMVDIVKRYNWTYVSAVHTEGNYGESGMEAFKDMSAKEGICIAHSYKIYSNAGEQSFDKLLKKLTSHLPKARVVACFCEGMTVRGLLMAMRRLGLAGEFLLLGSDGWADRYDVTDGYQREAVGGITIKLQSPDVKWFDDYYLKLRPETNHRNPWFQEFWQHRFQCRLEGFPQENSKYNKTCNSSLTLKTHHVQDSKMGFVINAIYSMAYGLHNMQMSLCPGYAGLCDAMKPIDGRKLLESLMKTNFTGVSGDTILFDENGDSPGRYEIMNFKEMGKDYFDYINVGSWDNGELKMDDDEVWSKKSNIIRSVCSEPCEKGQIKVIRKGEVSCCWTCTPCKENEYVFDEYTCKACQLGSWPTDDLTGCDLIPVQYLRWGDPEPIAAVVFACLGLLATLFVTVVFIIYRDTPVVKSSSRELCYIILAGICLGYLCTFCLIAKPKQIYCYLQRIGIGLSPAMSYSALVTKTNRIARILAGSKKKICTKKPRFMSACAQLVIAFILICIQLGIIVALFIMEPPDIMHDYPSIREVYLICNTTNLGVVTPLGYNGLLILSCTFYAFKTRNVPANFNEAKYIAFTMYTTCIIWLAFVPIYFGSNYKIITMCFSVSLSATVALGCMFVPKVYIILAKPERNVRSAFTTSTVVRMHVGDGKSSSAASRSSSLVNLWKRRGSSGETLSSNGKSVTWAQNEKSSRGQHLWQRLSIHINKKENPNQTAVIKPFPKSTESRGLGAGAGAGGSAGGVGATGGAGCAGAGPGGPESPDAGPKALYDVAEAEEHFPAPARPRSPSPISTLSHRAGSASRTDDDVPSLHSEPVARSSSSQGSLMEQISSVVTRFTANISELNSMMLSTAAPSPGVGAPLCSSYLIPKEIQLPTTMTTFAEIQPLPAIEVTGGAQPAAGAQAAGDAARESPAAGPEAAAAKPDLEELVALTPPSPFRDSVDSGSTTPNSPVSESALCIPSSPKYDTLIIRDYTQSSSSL

| Structure (SMILES) | mGluR5 Activity inh. at 10 μM [%] | inhibition at 10 µM [%] |
| --- | --- | --- |
| C[C@H]1CCCN(C(=O)c2ccc(Nc3ccc(Cl)cc3)nc2)C1 [Compound 1.12a, [6-(4-Chloro-phenylamino)-pyridin-3-yl]-(S-3-methyl-piperidin-1-yl)-methanone] | 99 |  |
| Cc1ccc(Nc2ccc(C(=O)N3CCCC(C)C3)cn2)cc1 (centres unmarked) [Compound 1.13] | 96 |  |
| COc1ccc(Nc2ccc(C(=O)N3C[C@@H](C)O[C@@H](C)C3)cn2)cc1 [Compound 1.21, (cis-2,6-Dimethyl-morpholin-4-yl)-[6-(4-methoxy-phenylamino)-pyridin-3-yl]-methanone hydrochloride] |  | 57 |
| O=C(c1ccc(Nc2ccc(Cl)cc2)nc1)N1C2CCC1CC(O)C2 (centres unmarked) [Compound 4.11, [6-(4-Chloro-phenylamino)-pyridin-3-yl]-(3-hydroxy-8-aza-bicyclo[3.2.1]oct-8-yl)-methasone] | 51 |  |
| Cc1ccc(Nc2ccc(C(=O)N3CCC[C@H](C)C3)cn2)cn1 [Compound 4.13a, (S-3-Methyl-piperidin-1-yl)-[6-(6-methyl-pyridin-3-ylamino)-pyridin-3-yl]-methanone] | 97 |  |
| Cc1ccc(Nc2ncc(C(=O)N3CCCC4CCCC43)cc2Cl)cn1 (centres unmarked) [Compound 4.25, [5-Chloro-6-(6-methyl-pyridin-3-ylamino)-pyridin-3-yl]-(octahydro-[1]pyrindin-1-yl)-methasone] | 98 |  |
| Cc1ccc(Nc2ncc(C(=O)N3CCC[C@@H]4CCC[C@@H]43)cc2Cl)cn1 [Compound 4.26, [5-Chloro-6-(6-methyl-pyridin-3-ylamino)-pyridin-3-yl]-(4aS,7aS)-octahydro-[1]pyrindin-1-yl-methanone] |  | 93 |
| CCC[C@H]1CCCCN1C(=O)c1cnc(Nc2ccc(C)nc2)c(Cl)c1 [Compound 4.35, [5-Chloro-6-(6-methyl-pyridin-3-ylamino)-pyridin-3-yl]-((S)-2-propyl-piperidin-1-yl)-methasone] | 85 |  |
| C/C=C\C1CCCCN1C(=O)c1cnc(Nc2ccc(C)nc2)c(Cl)c1 (centres unmarked) [Compound 4.56, [5-Chloro-6-(6-methyl-pyridin-3-ylamino)-pyridin-3-yl]-[((Z)-2-propenyl)-piperidin-1-yl]-methanone] | 97 |  |
| CCOCC1CCCCN1C(=O)c1cnc(Nc2ccc(C)nc2)c(Cl)c1 (centres unmarked) [Compound 4.60, [5-Chloro-6-(6-methyl-pyridin-3-ylamino)-pyridin-3-yl]-(2-thoxymethyl-piperidin-1-yl)-methanone] | 97 |  |
| CCC(CC)C1OCCCCN1C(=O)c1cnc(Nc2ccc(C)nc2)c(Cl)c1 (centres unmarked) [Compound 4.67] | 95 |  |
